Experimental data from the supplement of paper PMC10307832.

How the values were obtained:
Test in all cases: relative viability (nuclei count vs DMSO), 5 days (fraction); higher = more cells survive
[1] = compound: CC1=CN=C(N=C1C2=CNC(=C2)C(=O)N[C@H](CO)C3=CC(=CC=C3)Cl)NC4=C(C=C(C=C4)F)Cl [VX-11e] + Cc1cc(Nc2cc(N3CCN(C)CC3)nc(Sc3ccc(NC(=O)C4CC4)cc3)n2)n[nH]1 [Tozasertib] (partner 0.1 µM)
Method in brief: (§1)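 For relative viability, nuclei counts in treated wells were divided by those in vehicle wells. Lung cancer cell lines had been pin-tool dosed in 1536-well plates the day after seeding and cultured for 5 days, then fixed and stained in one step (final 0.05% Triton X-100, 1% formaldehyde, 1 ug/ml Hoechst) and imaged at 4×. Doses were one drug alone or a fixed anchor-drug dose plus five library-drug doses (not always all listed) in √10 steps, and values are duplicate-plate medians.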

[2] = compound: CC1=CN=C(N=C1C2=CNC(=C2)C(=O)N[C@H](CO)C3=CC(=CC=C3)Cl)NC4=C(C=C(C=C4)F)Cl [VX-11e] + COc1cc2c(Oc3ccc(NC(=O)C4(C(=O)Nc5ccc(F)cc5)CC4)cc3F)ccnc2cc1OCCCN1CCOCC1 [Foretinib] (partner 0.25 µM)
Method in brief: as §1

[3] = compound: CC1=CN=C(N=C1C2=CNC(=C2)C(=O)N[C@H](CO)C3=CC(=CC=C3)Cl)NC4=C(C=C(C=C4)F)Cl [VX-11e] + NC(=O)Nc1cc(-c2cccc(F)c2)sc1C(=O)N[C@H]1CCCNC1 [AZD7762] (partner 0.2 µM)
Method in brief: as §1

[4] = compound: CC1=CN=C(N=C1C2=CNC(=C2)C(=O)N[C@H](CO)C3=CC(=CC=C3)Cl)NC4=C(C=C(C=C4)F)Cl [VX-11e] + CCNC(=O)c1noc(-c2cc(C(C)C)c(O)cc2O)c1-c1ccc(CN2CCOCC2)cc1 [Luminespib] (partner 0.01 µM)
Method in brief: as §1

| Cell Line | relative viability ([1]; first compound 0.04 µM) | relative viability ([1]; first compound 0.1265 µM) | relative viability ([1]; first compound 0.4 µM) | relative viability ([1]; first compound 1.265 µM) | relative viability ([1]; first compound 4 µM) | relative viability ([2]; first compound 0.04 µM) | relative viability ([2]; first compound 0.1265 µM) | relative viability ([2]; first compound 0.4 µM) | relative viability ([2]; first compound 1.265 µM) | relative viability ([2]; first compound 4 µM) | relative viability ([3]; first compound 0.04 µM) | relative viability ([3]; first compound 0.1265 µM) | relative viability ([3]; first compound 0.4 µM) | relative viability ([3]; first compound 1.265 µM) | relative viability ([3]; first compound 4 µM) | relative viability ([4]; first compound 0.04 µM) | relative viability ([4]; first compound 0.1265 µM) | relative viability ([4]; first compound 0.4 µM) | relative viability ([4]; first compound 1.265 µM) | relative viability ([4]; first compound 4 µM) |
| --- | --- | --- | --- | --- | --- | --- | --- | --- | --- | --- | --- | --- | --- | --- | --- | --- | --- | --- | --- | --- |
| NCI-H1355 | 0.516 | 0.544 | 0.457 | 0.346 | 0.282 | 0.93 | 0.94 | 0.933 | 0.883 | 0.543 | 0.757 | 0.695 | 0.45 | 0.615 | 0.368 | 0.681 | 0.683 | 0.552 | 0.638 | 0.47 |
| NCI-H1395 | 0.75 | 0.688 | 0.689 | 0.781 | 0.547 | 1.05 | 0.898 | 0.931 | 1 | 0.666 | 0.377 | 0.394 | – | 0.385 | 0.365 | 0.804 | 0.637 | 0.423 | 0.682 | 0.46 |
| NCI-H1437 | 0.421 | 0.379 | 0.345 | 0.335 | 0.159 | 1.27 | 1.25 | 1.32 | 1.36 | 0.677 | 1.11 | 1.09 | 0.867 | 0.972 | 0.741 | 1.19 | 1.09 | 0.996 | 1.17 | 0.736 |
| NCI-H1651 | 0.898 | 0.523 | 0.536 | 0.38 | 0.253 | 0.89 | 0.724 | 0.781 | 0.745 | 0.667 | 0.331 | 0.399 | 0.464 | 0.47 | 0.377 | 0.977 | 0.847 | 0.784 | 0.796 | 0.672 |
| NCI-H1666 | 0.561 | 0.584 | 0.49 | 0.52 | 0.388 | 0.957 | 0.853 | 0.87 | 0.692 | 0.546 | 0.803 | 0.832 | 0.715 | 0.732 | 0.699 | 1.02 | 0.92 | 0.941 | 0.829 | 0.642 |
| NCI-H1734 | 0.289 | 0.209 | 0.234 | 0.23 | 0.192 | 0.941 | 0.852 | 0.81 | 0.706 | 0.344 | 0.525 | 0.532 | 0.307 | 0.334 | 0.296 | 0.203 | 0.21 | 0.269 | 0.205 | 0.163 |
| NCI-H1755 | 0.59 | 0.487 | 0.513 | 0.527 | 0.402 | 0.925 | 0.931 | 0.905 | 0.945 | 0.598 | 0.434 | 0.333 | 0.341 | 0.513 | 0.359 | 0.3 | 0.42 | 0.479 | 0.466 | 0.324 |
| NCI-H1793 | 0.345 | 0.293 | – | 0.228 | 0.133 | 0.589 | 0.603 | – | 0.748 | 0.411 | – | 0.361 | – | 0.516 | 0.191 | 0.178 | 0.177 | – | 0.275 | 0.15 |
| NCI-H1915 | 0.42 | 0.392 | 0.401 | 0.366 | 0.295 | 1.12 | 1.08 | 1.16 | 1.13 | 0.791 | 0.719 | 0.719 | 0.596 | 0.791 | 0.554 | 0.821 | 0.737 | 0.851 | 0.773 | 0.59 |
| NCI-H1944 | 0.224 | 0.227 | – | 0.231 | 0.171 | 0.896 | 0.851 | – | 0.806 | 0.505 | 0.513 | 0.522 | 0.255 | 0.449 | 0.37 | 0.711 | 0.708 | – | 0.571 | 0.422 |
| NCI-H1975 | 0.695 | 0.526 | 0.228 | 0.216 | 0.124 | 1.02 | 0.949 | 1.01 | 1.08 | 0.46 | 0.657 | 0.721 | 0.562 | 0.57 | 0.378 | 0.232 | 0.199 | 0.156 | 0.283 | 0.186 |
| NCI-H1993 | 0.626 | 0.603 | 0.639 | 0.562 | 0.514 | 0.786 | 0.818 | 0.857 | 0.734 | 0.667 | – | 0.884 | 0.687 | 0.453 | 0.48 | 1.12 | 0.918 | 0.484 | 1.02 | 0.663 |
| NCI-H2085 | 0.897 | 0.724 | 0.659 | 0.644 | 0.413 | 0.973 | 0.951 | 0.725 | 0.835 | 0.679 | 0.853 | 0.975 | 0.829 | 0.887 | 0.642 | 0.378 | 0.433 | 0.396 | 0.323 | 0.276 |
| NCI-H2087 | 0.28 | 0.208 | – | 0.203 | 0.167 | 1.14 | 1.06 | – | 0.81 | 0.454 | 1.51 | 1.37 | – | 1.24 | 0.583 | 0.188 | 0.188 | – | 0.154 | 0.152 |
| NCI-H2126 | 0.828 | 0.78 | – | 0.666 | 0.6 | 1.21 | 1.22 | 1.01 | 1.1 | 0.903 | 0.844 | 0.972 | 0.795 | 1.01 | 0.861 | 0.824 | 0.877 | – | 0.964 | 0.737 |
| NCI-H2170 | 0.81 | 0.687 | 0.734 | 0.69 | 0.686 | 0.995 | 1.13 | 0.906 | 0.953 | 0.812 | 0.758 | 0.89 | 0.298 | 0.632 | 0.821 | 0.878 | 0.639 | 0.566 | 0.802 | 0.436 |
| NCI-H2342 | 0.422 | 0.503 | 0.498 | 0.406 | 0.416 | 1.15 | 1.1 | 0.98 | 1.07 | 0.893 | – | 0.462 | 0.604 | 0.508 | 0.466 | 0.79 | 0.76 | 0.558 | 0.617 | 0.747 |
